Data on seven compounds can be found in patent US20260199482A1, “BILE ACID-METRONIDAZOLE CONJUGATE AND USE THEREOF” (SOUTH CHINA UNIVERSITY OF TECHNOLOGY, priority 2022, published 2026).

Holding throughout (type): cell-based
For experiment [1], the system named is Bacteroides fragilis ATCC 25285. The experiment can be described thus: MIC determination using broth microdilution method, anaerobic bacteria. Here is the method: (§1) The culture process of the strain was operated in the anaerobic glove box. After the operation was completed, the strain was well sealed with an anaerobic bag or an anaerobic box, taken out and then cultured in the constant-temperature incubator.
On the technique in general: Broth dilution looks for growth in wells or tubes with falling amounts of substance.

Experiment [2] deals with Clostridioides difficile ATCC 43255. Described as above. Conditions: for MIC: ATCC43255, Clostridioides difficile ATCC 43255, broth microdilution, anaerobic, 37° C., 48 h. Here is the method:
0.10 g of sterile cycloserine and 3.20 mg of sterile cefoxitin (filtered by a filter membrane and sterilized) were added to every 200 mL, mixed well, and poured into a sterile petri dish for later use.
S3, culture of Clostridioides difficile strain: 1) the strain stored at −80° C. was resuscitated in an anaerobic glove box with a cycloserine-cefoxitin-fructose agar medium plate, and statically cultured at 37° C. in a constant-temperature incubator for 48 h; • 2) single colonies were picked, and statically cultured in the brain heart infusion broth medium overnight at 37° C. in the constant-temperature incubator; and • 3) the bacterial solution that was statically cultured overnight was transferred into the anaerobic glove box with the brain heart infusion broth medium at a ratio of 1:100, and cultured for 3-4 h until the OD600 was between 0.6 and 0.8; and during this process, 5 g/L of yeast extract solution was added to increase a strain concentration.
as §1

Experiment [3] relates to Porphyromonas gingivalis ATCC 33277. Described as above. Here is the method:
S5, Culture of Porphyromonas gingivalis strain: • the strain stored at −80° C. was resuscitated in the anaerobic glove box with a Colombian blood agar plate, and statically cultured at 37° C. in the constant-temperature incubator for 5-7 days.
as §1

In another experiment the test system is H. pylori ATCC 26695. The experiment can be described thus: MIC determination using broth microdilution method, Helicobacter pylori. As to the method:
(§2) • 1) A frozen solution stored at −80° C. was taken out, and thawed at room temperature; 100 μL of bacterial solution was taken with a pipette, coated onto a Columbia blood agar plate (finished-product medium), put invertedly in a […] culture box, placed in a micro-aerobic gas production bag to achieve a micro-aerobic environment, and cultured at 37° C. for 2-3 days. • 2) A sterile inoculation ring was used to pick Helicobacter pylori single colonies (transparent water droplets) grown on the Colombian blood agar medium and inoculated in the above liquid medium; and cultured at 37° C. in a micro-aerobic environment for 3 days. • 3) A required concentration (absorbance) for the experiment was reached after culture, and the bacterial solution was taken for subsequent experiments.
(§3) The drug concentration at which bacteria ceased to grow or grew at the most significant reduction level was referred to as the MIC value.

A further experiment relates to H. pylori NCTC 11637. The experiment is described as above. As to conditions: for MIC: Helicobacter pylori, NCTC11637; for inhibitory activity against drug-resistant bacteria, in words: metronidazole-resistant H. pylori NCTC 11637, versus metronidazole. As to the method: as §2, §3
In experiment [4] the test system is H. pylori Sydney strain SS1. Described as above. Here is the method: as §2, §3
For a further experiment, the system named is H. pylori ATCC 43504. The description is as above. Conditions: for MIC: Helicobacter pylori, ATCC43504; for inhibitory activity against drug-resistant bacteria, in words: metronidazole-resistant H. pylori ATCC 43504, versus metronidazole. As to the method: as §2, §3
[5] abbreviates: ATCC25285, Bacteroides fragilis ATCC 25285, broth microdilution, anaerobic, 37° C., 48 h, read-out: MIC.
Setting [6] is: ATCC33277, Porphyromonas gingivalis ATCC 33277, broth microdilution, anaerobic, 37° C., 48 h, read-out: MIC.
The mark [7] stands for this setting: ATCC26695, H. pylori ATCC 26695(S), metronidazole-susceptible strain, read-out: MIC.
The mark [8] stands for this setting: H. pylori NCTC 11637(R), metronidazole-resistant strain, read-out: MIC.
[9] abbreviates: H. pylori Sydney strain SS1, read-out: MIC.
[10] abbreviates: H. pylori ATCC 43504(R), metronidazole-resistant strain, read-out: MIC.

Converted amounts (≈) assume the structure as drawn. Like-named read-outs stand apart in the source and are kept apart here. A value given as a limit tells only on which side of the number the result lay.

One may read the MIC as the smallest concentration in the dilution series that meets the test's criterion for growth inhibition. In the case of `C[C@H](CCC(=O)O)[C@H]1CC[C@H]2[C@@H]3[C@H](O)C[C@@H]4C[C@H](O)CC[C@]4(C)[C@H]3CC[C@]12C` [CDCA, chenodeoxycholic acid, reference compound], the MIC in experiment [1] (setting [5]) was > 32 µg/mL; in experiment [2], 8 µg/mL (≈ 20.4 µM); in experiment [3] (setting [6]), > 32 µg/mL.
Regarding `C[C@H](CCC(=O)O)[C@H]1CC[C@H]2[C@@H]3[C@H](O)[C@H](O)[C@@H]4C[C@H](O)CC[C@]4(C)[C@H]3CC[C@]12C` [HCA, hyocholic acid, reference compound], the MIC was > 32 µg/mL in experiment [1] (setting [5]), 32 µg/mL (≈ 78.3 µM) in experiment [2] and > 32 µg/mL in experiment [3] (setting [6]).
In the case of `Cc1ncc([N+](=O)[O-])n1CCOC(=O)CC[C@@H](C)[C@H]1CC[C@H]2[C@@H]3CC[C@@H]4C[C@H](O)CC[C@]4(C)[C@H]3CC[C@]12C` [SCUT1-1], the MIC in experiment [1] (Bacteroides fragilis, ATCC25285, 48 h) was 1 µg/mL (≈ 1.89 µM); against H. pylori ATCC 26695 (ATCC26695), 8 µg/mL (≈ 15.1 µM); against H. pylori NCTC 11637, 16 µg/mL (≈ 30.2 µM); in experiment [4], 8 µg/mL (≈ 15.1 µM); against H. pylori ATCC 43504 it was > 128 µg/mL; in experiment [2], 0.5 µg/mL (≈ 0.944 µM). In experiment [3] (Porphyromonas gingivalis, ATCC33277, 48 h), this compound showed an MIC of 2 µg/mL (≈ 3.78 µM).
For `Cc1ncc([N+](=O)[O-])n1CCOC(=O)CC[C@@H](C)[C@H]1CC[C@H]2[C@@H]3[C@H](O)C[C@@H]4C[C@H](O)CC[C@]4(C)[C@H]3CC[C@]12C` [SCUT1-3], the MIC in experiment [1] (setting [5]) was determined as 4 µg/mL (≈ 7.33 µM); with H. pylori ATCC 26695 (setting [7]), 4 µg/mL (≈ 7.33 µM); with H. pylori NCTC 11637 (setting [8]), 8 µg/mL (≈ 14.7 µM); in experiment [4] (setting [9]) it was 8 µg/mL (≈ 14.7 µM); with H. pylori ATCC 43504 (setting [10]) it was 4 µg/mL (≈ 7.33 µM); in experiment [2], 0.12 µg/mL (≈ 0.22 µM). Also, the MIC in experiment [3] (setting [6]) came to 0.5 µg/mL (≈ 0.916 µM). Moreover, the “inhibitory activity against drug-resistant bacteria, in words” value with H. pylori NCTC 11637 and in the experiment on H. pylori ATCC 43504 was “significantly promoted” in each case. Besides, in experiment [2] (comment on Table 1), the “inhibitory effect on Clostridioides difficile (ATCC 43255), in words” value was “particularly prominent”.
In the case of `Cc1ncc([N+](=O)[O-])n1CCOC(=O)CC[C@@H](C)[C@H]1CC[C@H]2[C@@H]3[C@H](O)C[C@H]4C[C@H](O)CC[C@]4(C)[C@H]3CC[C@]12C` [SCUT1-4], the MIC in experiment [1] (setting [5]) came to 2 µg/mL (≈ 3.66 µM); in the experiment on H. pylori ATCC 26695 (setting [7]) it was 4 µg/mL (≈ 7.33 µM); in the experiment with H. pylori NCTC 11637 (setting [8]), 4 µg/mL (≈ 7.33 µM); in experiment [4] (setting [9]) it was 4 µg/mL (≈ 7.33 µM); with H. pylori ATCC 43504 (setting [10]), 4 µg/mL (≈ 7.33 µM); in experiment [2] it was 2 µg/mL (≈ 3.66 µM). Further, the MIC in experiment [3] (setting [6]) worked out at 0.5 µg/mL (≈ 0.916 µM). Moreover, the “inhibitory activity against drug-resistant bacteria, in words” value in the experiment on H. pylori NCTC 11637 and in the experiment with H. pylori ATCC 43504 was “significantly promoted” each time.
Regarding `Cc1ncc([N+](=O)[O-])n1CCOC(=O)CC[C@@H](C)[C@H]1CC[C@H]2[C@@H]3C[C@H](O)[C@@H]4C[C@H](O)CC[C@]4(C)[C@H]3CC[C@]12C` [SCUT1-5], the MIC in experiment [1] (setting [5]) worked out at 2 µg/mL (≈ 3.66 µM); in the experiment with H. pylori ATCC 26695 (setting [7]), 8 µg/mL (≈ 14.7 µM); in the experiment with H. pylori NCTC 11637 (setting [8]), 32 µg/mL (≈ 58.6 µM); in experiment [4] (setting [9]), 16 µg/mL (≈ 29.3 µM); in the experiment with H. pylori ATCC 43504 (setting [10]), 4 µg/mL (≈ 7.33 µM); in experiment [2] it was 0.25 µg/mL (≈ 0.458 µM). In addition, the MIC in experiment [3] (setting [6]) is 2 µg/mL (≈ 3.66 µM).
In the case of `Cc1ncc([N+](=O)[O-])n1CCOC(=O)CC[C@@H](C)[C@H]1CC[C@H]2[C@@H]3C(=O)C[C@@H]4C[C@H](O)CC[C@]4(C)[C@H]3C[C@H](O)[C@]12C` [SCUT1-8], the MIC turned out to be 1 µg/mL (≈ 1.79 µM) in experiment [1] (setting [5]); 8 µg/mL (≈ 14.3 µM) with H. pylori ATCC 26695 (setting [7]); 64 µg/mL (≈ 114 µM) with H. pylori NCTC 11637 (setting [8]); 8 µg/mL (≈ 14.3 µM) in experiment [4] (setting [9]); 16 µg/mL (≈ 28.6 µM) in the experiment with H. pylori ATCC 43504 (setting [10]); 1 µg/mL (≈ 1.79 µM) in experiment [2]. In experiment [3] (setting [6]), the MIC was 1 µg/mL (≈ 1.79 µM).
